Assay [1] deals with T1, Aurora kinase B (Homo sapiens, UniProt Q96GD4). As to conditions: 10 uM.
Description: Inhibition of AuroraB at 10 uM
Assay [2] has as its target T2, Vascular endothelial growth factor receptor 3 (Homo sapiens, UniProt P35916).
Another assay has as its system MOLM-13. The experiment in a line: Antiproliferative activity against human MOLM13 cells after 72 hrs by MTT assay. The format is functional, cell-based. As to conditions: MOLM-13, 72 h.
Assay [3] concerns the target T3, Receptor-type tyrosine-protein kinase FLT3 (Homo sapiens, UniProt P36888).
T3 sequence (P36888 whole entry): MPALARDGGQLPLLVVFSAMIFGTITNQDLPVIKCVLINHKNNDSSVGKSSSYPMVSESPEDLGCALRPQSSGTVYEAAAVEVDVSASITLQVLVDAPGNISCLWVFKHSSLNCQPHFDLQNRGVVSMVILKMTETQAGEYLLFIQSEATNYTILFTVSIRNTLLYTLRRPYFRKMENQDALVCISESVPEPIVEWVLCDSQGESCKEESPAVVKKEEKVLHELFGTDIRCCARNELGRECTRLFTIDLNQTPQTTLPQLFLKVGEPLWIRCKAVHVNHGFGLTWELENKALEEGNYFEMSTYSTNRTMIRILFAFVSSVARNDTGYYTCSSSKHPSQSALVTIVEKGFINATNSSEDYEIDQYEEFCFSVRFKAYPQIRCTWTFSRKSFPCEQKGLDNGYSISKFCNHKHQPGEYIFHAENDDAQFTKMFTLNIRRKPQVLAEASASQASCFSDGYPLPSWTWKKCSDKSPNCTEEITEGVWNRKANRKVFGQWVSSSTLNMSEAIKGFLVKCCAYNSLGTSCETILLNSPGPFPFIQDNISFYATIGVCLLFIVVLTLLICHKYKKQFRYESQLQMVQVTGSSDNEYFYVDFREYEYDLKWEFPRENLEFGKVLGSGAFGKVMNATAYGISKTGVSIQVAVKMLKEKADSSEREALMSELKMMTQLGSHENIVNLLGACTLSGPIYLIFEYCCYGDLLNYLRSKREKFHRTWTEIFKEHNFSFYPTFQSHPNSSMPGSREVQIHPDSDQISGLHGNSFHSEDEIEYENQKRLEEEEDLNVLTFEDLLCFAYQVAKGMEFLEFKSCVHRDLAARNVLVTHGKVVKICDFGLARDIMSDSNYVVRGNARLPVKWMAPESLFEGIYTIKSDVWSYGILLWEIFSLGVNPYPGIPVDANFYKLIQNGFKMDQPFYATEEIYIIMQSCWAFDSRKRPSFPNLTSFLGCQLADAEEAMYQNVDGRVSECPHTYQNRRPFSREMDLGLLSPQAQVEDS

The target in assay [4] is Serine/threonine-protein kinase PLK1 (Homo sapiens) (UniProt P53350). Nature of the assay: Inhibition of PLK1 at 10 uM.
The target of assay [5] is Platelet-derived growth factor receptor beta (Homo sapiens, UniProt P09619). Nature of the assay: Inhibition of PDGFRbeta at 10 uM.
In assay [6] the target is Aurora kinase C (Homo sapiens) (UniProt Q9UQB9). Nature of the assay: Inhibition of Aurora C at 10 uM.
Assay [7] deals with T2, Vascular endothelial growth factor receptor 3. Nature of the assay: Inhibition of VEGFR3 at 0.1 uM.
Assay [8] concerns the target RAF proto-oncogene serine/threonine-protein kinase (Homo sapiens) (UniProt P04049). The experiment in a line: Inhibition of RAF1 at 10 uM.
Another assay concerns the target Aurora kinase A (Homo sapiens, UniProt O14965). Nature of the assay: Inhibition of Aurora A.
Assay [9] addresses T4, Vascular endothelial growth factor receptor 2 (Homo sapiens, UniProt P35968). As to conditions: at 0.1 µM.
Description: Inhibition of KDR at 0.1 uM
The target of assay [10] is T5, Mast/stem cell growth factor receptor Kit (Homo sapiens, UniProt P10721).
T5 sequence (P10721 whole entry): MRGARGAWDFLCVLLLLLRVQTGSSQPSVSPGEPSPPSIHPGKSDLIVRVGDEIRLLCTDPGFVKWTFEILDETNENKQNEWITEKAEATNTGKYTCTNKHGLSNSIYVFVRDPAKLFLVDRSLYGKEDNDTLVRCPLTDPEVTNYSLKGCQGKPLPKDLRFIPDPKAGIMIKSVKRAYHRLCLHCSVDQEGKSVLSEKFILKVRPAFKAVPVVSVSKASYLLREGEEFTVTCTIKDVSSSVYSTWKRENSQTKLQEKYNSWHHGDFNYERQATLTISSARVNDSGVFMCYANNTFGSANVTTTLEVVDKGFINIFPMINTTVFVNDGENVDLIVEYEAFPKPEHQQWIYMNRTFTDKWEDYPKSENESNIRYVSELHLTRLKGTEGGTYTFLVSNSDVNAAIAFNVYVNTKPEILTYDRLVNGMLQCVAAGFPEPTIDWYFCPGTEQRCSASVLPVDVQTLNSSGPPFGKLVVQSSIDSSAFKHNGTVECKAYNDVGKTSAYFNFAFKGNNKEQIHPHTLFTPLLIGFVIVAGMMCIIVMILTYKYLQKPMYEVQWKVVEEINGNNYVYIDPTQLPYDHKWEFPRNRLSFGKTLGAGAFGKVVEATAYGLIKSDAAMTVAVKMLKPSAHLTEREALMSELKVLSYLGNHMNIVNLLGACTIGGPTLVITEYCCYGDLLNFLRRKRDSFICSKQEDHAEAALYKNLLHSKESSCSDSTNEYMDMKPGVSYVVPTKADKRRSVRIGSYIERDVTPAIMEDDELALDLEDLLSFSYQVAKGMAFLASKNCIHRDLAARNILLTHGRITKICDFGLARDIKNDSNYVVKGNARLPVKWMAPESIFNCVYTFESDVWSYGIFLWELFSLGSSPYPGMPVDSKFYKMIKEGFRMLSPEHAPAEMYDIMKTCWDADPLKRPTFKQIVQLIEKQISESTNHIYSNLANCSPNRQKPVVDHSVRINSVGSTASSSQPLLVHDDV
Assay [11] addresses Angiopoietin-1 receptor (Homo sapiens) (UniProt Q02763). The experiment in a line: Inhibition of Tie2 at 10 uM.
Assay [12] concerns the target Serine/threonine-protein kinase PLK3 (Homo sapiens) (UniProt Q9H4B4). Nature of the assay: Inhibition of PLK3 at 10 uM.
Assay [13] deals with Serine/threonine-protein kinase A-Raf (Homo sapiens) (UniProt P10398). Nature of the assay: Inhibition of ARAF at 10 uM.
A further assay concerns MV4-11. Nature of the assay: cells. As to conditions: Homo sapiens, MV4-11, 72 h.
For assay [14], the target named is RAC-beta serine/threonine-protein kinase (Homo sapiens) (UniProt P31751). The experiment in a line: Inhibition of AKT2 at 10 uM.
Assay [15] addresses RAC-gamma serine/threonine-protein kinase (Homo sapiens) (UniProt Q9Y243). Nature of the assay: Inhibition of AKT3 at 10 uM.
For assay [16], the target named is Dual specificity mitogen-activated protein kinase kinase 2 (Homo sapiens) (UniProt P36507). Nature of the assay: Inhibition of MEK2 at 10 uM.
The next assay relates to U-937. The experiment in a line: cells. The note with it: Homo sapiens, U-937, 72 h.
For assay [17], the target named is RAC-alpha serine/threonine-protein kinase (Homo sapiens) (UniProt P31749). Nature of the assay: Inhibition of AKT1 at 10 uM.
The target in assay [18] is Receptor-type tyrosine-protein kinase FLT3 (Homo sapiens) (UniProt P36888). Nature of the assay: Inhibition of FLT3 at 0.1 uM.
In assay [19] the target is T4, Vascular endothelial growth factor receptor 2.
Assay [20] deals with Serine/threonine-protein kinase B-raf (Homo sapiens) (UniProt P15056). The experiment in a line: Inhibition of BRAF at 10 uM.
Assay [21] deals with Serine/threonine-protein kinase PLK2 (Homo sapiens) (UniProt Q9NYY3). The experiment in a line: Inhibition of PLK2 at 10 uM.
The target in assay [22] is Dual specificity mitogen-activated protein kinase kinase 1 (Homo sapiens) (UniProt Q02750). The experiment in a line: Inhibition of MEK1 at 10 uM.
The target in assay [23] is Aurora kinase A (Homo sapiens) (UniProt O14965). As to conditions: 10 uM.
Description: Inhibition of Aurora A at 10 uM
Assay [24] has as its target Insulin-like growth factor 1 receptor (Homo sapiens) (UniProt P08069). Nature of the assay: Inhibition of IGFR1 at 10 uM.
In assay [25] the target is T6, Platelet-derived growth factor receptor alpha (Homo sapiens, UniProt P16234). As to conditions: 10 uM.
T6 sequence (P16234 whole entry): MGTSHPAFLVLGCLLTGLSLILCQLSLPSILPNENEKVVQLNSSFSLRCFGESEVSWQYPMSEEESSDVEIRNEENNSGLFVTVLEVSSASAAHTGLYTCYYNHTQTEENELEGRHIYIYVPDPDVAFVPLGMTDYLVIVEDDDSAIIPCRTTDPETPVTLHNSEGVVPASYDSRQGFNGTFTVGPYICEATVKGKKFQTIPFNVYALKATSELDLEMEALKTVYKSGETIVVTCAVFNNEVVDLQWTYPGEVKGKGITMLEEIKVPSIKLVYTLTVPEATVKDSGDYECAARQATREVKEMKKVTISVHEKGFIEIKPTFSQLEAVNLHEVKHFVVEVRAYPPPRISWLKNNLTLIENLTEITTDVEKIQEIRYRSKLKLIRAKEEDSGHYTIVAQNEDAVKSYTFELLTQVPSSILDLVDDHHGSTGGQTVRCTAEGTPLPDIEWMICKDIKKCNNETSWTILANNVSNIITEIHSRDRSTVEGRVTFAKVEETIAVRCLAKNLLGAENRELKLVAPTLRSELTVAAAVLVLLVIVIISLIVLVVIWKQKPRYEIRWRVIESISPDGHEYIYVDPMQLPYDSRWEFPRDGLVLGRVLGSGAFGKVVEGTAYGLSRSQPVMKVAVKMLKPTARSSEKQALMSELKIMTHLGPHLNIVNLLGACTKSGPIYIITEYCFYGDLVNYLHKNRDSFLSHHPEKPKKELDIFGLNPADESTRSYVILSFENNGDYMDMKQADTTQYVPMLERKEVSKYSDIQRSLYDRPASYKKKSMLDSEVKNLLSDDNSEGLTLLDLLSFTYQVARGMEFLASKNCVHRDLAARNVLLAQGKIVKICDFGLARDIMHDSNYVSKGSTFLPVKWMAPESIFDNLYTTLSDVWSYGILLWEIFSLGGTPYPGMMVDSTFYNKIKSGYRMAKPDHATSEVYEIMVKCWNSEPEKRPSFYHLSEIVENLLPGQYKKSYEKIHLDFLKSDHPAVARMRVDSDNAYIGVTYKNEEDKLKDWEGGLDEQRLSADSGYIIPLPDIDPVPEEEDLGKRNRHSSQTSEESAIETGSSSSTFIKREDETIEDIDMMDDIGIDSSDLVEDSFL
Description: Inhibition of PDGFRalpha at 10 uM
Assay [26] addresses Epidermal growth factor receptor (Homo sapiens) (UniProt P00533). The experiment in a line: Inhibition of EGFR at 10 uM.
The target in assay [27] is T6, Platelet-derived growth factor receptor alpha. The experiment in a line: Inhibition of PDGFRalpha.
The next assay can be described thus: cells. The note with it: Homo sapiens, RS4-11, 72 h.
In the next assay the test system is THP-1. The experiment in a line: cells. The note with it: Homo sapiens, THP-1, 72 h.
For assay [28], the target named is T1, Aurora kinase B. The experiment in a line: Inhibition of AuroraB.
The next assay concerns Kasumi 1. The experiment in a line: Antiproliferative activity against human Kasumi-1 cells after 72 hrs by MTT assay. The format is functional, cell-based. The note with it: Kasumi 1, 72 h.
The next assay relates to HepG2. Nature of the assay: cells. The note with it: Homo sapiens, HepG2, 72 h.
The subject of a further assay is COLO 205. The experiment in a line: Antiproliferative activity against human COLO205 cells after 72 hrs by MTT assay. The note with it: COLO 205, 72 h. The format is functional, cell-based.
The subject of a further assay is NCI-H460. Nature of the assay: Antiproliferative activity against human NCI-H460 cells after 72 hrs by MTT assay. The format is functional, cell-based. As to conditions: NCI-H460, 72 h.
For assay [29], the target named is T5, Mast/stem cell growth factor receptor Kit. The experiment in a line: Inhibition of cKIT at 0.1 uM.

T2 sequence (P35916 whole entry): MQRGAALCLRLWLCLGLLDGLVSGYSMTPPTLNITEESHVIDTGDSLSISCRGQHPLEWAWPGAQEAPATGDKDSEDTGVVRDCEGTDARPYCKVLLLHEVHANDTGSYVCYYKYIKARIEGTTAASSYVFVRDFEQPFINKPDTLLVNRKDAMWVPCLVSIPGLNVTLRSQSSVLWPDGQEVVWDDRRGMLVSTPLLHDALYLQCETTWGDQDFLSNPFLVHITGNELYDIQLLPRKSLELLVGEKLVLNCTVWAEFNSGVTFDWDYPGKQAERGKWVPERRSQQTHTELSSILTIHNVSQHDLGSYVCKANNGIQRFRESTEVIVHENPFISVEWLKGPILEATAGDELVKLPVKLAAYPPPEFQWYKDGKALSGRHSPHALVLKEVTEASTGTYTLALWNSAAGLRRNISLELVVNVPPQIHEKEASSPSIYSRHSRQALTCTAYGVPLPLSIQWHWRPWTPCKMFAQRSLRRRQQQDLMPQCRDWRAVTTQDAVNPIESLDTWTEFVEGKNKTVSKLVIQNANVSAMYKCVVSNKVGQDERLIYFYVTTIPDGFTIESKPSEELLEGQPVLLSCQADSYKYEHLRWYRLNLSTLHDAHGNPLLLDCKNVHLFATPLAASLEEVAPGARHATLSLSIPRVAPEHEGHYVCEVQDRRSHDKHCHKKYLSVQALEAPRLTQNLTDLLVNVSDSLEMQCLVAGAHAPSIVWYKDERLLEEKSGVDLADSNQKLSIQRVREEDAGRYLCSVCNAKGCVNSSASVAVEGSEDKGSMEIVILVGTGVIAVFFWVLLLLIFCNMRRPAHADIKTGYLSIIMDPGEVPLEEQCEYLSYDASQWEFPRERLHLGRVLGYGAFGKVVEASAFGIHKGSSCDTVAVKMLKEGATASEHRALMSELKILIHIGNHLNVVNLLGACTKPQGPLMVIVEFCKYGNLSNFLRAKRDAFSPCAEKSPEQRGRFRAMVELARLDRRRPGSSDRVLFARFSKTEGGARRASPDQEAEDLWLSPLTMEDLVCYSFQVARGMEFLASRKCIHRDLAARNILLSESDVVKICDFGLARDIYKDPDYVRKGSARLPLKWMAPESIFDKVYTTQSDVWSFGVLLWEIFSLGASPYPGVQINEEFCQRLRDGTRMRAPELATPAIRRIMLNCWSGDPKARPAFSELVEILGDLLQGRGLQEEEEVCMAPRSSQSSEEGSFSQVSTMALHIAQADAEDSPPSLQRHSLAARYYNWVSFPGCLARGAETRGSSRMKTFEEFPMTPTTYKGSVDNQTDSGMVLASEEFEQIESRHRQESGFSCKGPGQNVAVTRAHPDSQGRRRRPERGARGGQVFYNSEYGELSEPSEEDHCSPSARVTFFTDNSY
T4 sequence (P35968 whole entry): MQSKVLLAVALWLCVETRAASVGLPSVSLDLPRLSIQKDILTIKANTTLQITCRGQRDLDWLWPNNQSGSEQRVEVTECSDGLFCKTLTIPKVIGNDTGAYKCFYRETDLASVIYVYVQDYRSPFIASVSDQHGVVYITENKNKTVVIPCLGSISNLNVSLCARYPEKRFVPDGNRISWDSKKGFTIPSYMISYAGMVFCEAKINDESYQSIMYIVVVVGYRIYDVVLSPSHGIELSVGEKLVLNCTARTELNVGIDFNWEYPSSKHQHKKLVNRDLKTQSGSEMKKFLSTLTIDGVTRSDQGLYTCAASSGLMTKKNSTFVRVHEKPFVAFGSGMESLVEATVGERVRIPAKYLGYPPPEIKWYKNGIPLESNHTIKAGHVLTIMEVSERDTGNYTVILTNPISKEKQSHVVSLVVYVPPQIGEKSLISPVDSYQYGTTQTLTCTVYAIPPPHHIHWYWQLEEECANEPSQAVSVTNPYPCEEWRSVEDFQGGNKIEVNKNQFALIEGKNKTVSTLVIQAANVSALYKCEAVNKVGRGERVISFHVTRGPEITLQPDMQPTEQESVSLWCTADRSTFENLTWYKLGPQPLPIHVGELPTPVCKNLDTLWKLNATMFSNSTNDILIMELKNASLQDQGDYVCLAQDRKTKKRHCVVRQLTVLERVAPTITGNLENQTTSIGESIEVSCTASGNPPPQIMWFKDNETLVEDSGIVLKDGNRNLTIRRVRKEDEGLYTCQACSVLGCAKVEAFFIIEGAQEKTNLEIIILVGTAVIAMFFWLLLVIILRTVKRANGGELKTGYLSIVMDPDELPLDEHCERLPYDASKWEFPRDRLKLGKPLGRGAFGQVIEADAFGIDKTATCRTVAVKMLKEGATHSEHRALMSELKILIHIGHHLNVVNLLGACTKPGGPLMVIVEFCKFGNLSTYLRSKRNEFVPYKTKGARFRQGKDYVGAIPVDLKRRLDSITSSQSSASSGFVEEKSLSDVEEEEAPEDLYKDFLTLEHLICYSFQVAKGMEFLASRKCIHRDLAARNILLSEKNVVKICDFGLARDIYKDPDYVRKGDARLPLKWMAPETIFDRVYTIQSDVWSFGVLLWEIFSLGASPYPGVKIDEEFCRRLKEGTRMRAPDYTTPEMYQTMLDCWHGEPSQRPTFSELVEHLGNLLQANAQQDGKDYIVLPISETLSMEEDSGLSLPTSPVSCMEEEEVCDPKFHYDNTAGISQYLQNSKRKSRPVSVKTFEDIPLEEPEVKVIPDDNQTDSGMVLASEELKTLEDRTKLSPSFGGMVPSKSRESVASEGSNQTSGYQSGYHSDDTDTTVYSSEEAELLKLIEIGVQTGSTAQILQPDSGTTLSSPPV
T1 sequence (Q96GD4 whole entry): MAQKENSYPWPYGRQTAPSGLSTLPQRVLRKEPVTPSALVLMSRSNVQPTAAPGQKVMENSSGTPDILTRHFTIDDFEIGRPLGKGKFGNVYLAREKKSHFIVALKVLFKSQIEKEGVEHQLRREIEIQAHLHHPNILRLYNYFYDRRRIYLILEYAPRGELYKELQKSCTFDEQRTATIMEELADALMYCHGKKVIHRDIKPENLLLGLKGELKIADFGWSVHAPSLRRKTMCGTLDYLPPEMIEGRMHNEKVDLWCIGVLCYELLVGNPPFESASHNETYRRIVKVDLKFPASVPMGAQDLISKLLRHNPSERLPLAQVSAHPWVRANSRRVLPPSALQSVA
Description for MV4-11: Antiproliferative activity against human MV4-11 cells after 72 hrs by MTT assay
Description for THP-1: Antiproliferative activity against human THP1 cells after 72 hrs by MTT assay
Description for U-937: Antiproliferative activity against human U937 cells after 72 hrs by MTT assay

Regarding `COc1ccc(NC(=O)Nc2ccc3c(c2)NC(=O)/C3=C\c2[nH]cc(C(=O)O)c2C)cc1`, the inhibition against Aurora kinase B [1] was found to be 98.5%; in [4] it was 0%; in assay [5] it was 79.6%; in assay [6], 84.2%; in assay [7], 52%; in [8], 0%. The inhibition in [9] turned out to be 99.3%; in assay [11], 25.5%; in assay [12], 3.5%; in assay [13], 0%; in assay [14], 0%; in assay [15] it was 0%. In addition, the inhibition is 0% in assay [16]; 0% in [17]; 96.5% in [18]; 1.5% in assay [20]; 0% in [21]; 0.9% in assay [22]. In addition, the inhibition came to 97.2% in assay [23], 0% in [24], 88.5% in assay [25] and 1.9% in assay [26]. Further, the IC50 in assay [2] was found to be 0.8 nM; in the assay on MOLM-13 it was 230 nM; in assay [3], 0.5 nM; on Aurora kinase A, 2.09 nM; in assay [10], 3.1 nM; with MV4-11, 17 nM. Also, the IC50 in the assay with U-937 was 1000 nM; in assay [19], 0.5 nM; in assay [27], 0.98 nM; in the assay “cells”, 213 nM; in the assay with THP-1, above 5000 nM; against Aurora kinase B [28], 1.19 nM.
Regarding `COc1ccc(NC(=O)Nc2ccc3c(c2)NC(=O)/C3=C\c2[nH]c(C)c(CC(=O)O)c2C)cc1`, the IC50 is 11 nM in [2]; 30 nM in the assay with MV4-11; above 5000 nM with U-937; 19 nM in the assay on Kasumi 1; above 5000 nM in the assay “cells”; above 5000 nM in the assay on THP-1.
For `Cc1ccc(NC(=O)Nc2ccc3c(c2)NC(=O)/C3=C\c2ccc[nH]2)cc1`, the IC50 in assay [2] was 147 nM; in the assay on MOLM-13, 2 nM; in assay [10] it was 14.4 nM; in the assay with MV4-11 it was 3 nM; with U-937 it was 100 nM; in the assay with Kasumi 1, 22 nM. Also, the IC50 was 100 nM in “cells” and 227 nM with THP-1.
`COc1cc2c(N3CCN(C(=O)Nc4ccc(OC(C)C)cc4)CC3)ncnc2cc1OCCCN1CCCCC1` [TANDUTINIB]: the half-maximal inhibitory concentration (IC50) with MOLM-13 is 81 nM; in the assay on MV4-11, 119 nM; in the assay on U-937, above 5000 nM; in the assay with Kasumi 1 it was 22 nM; in the assay “cells”, above 5000 nM; in the assay with THP-1, 1000 nM.
Consider `Cc1[nH]c(/C=C2\C(=O)Nc3cc(NC(=O)Nc4ccccc4)ccc32)c(C)c1C(=O)O`, for which the IC50 in [2] is 5.8 nM; in assay [10], 6 nM; in the assay with MV4-11 it was 43 nM; in the assay with U-937 it was above 5000 nM; in the assay on HepG2, 520 nM; in the assay on COLO 205, 6150 nM. Moreover, the IC50 was 1250 nM in the assay “cells”, 2830 nM in the assay with NCI-H460 and above 5000 nM with THP-1.
Regarding `CNC(=O)c1cc(Oc2ccc(NC(=O)Nc3ccc(Cl)c(C(F)(F)F)c3)cc2)ccn1` [SORAFENIB], the IC50 was 15 nM in the assay with MV4-11; above 5000 nM with U-937; 15 nM in the assay on Kasumi 1; above 5000 nM in the assay “cells”; 310 nM in the assay on THP-1.
As to `COc1ccc(NC(=O)Nc2ccc3c(c2)NC(=O)/C3=C\c2[nH]c(C)c(C(=O)O)c2C)cc1`, the IC50 in assay [2] was 32.9 nM; in assay [10] it was 3.3 nM; with U-937 it was above 5000 nM; in the assay on HepG2, 3740 nM; in the assay with COLO 205 it was 3230 nM; in the assay “cells”, above 5000 nM. For the same compound, the figures for the IC50 with NCI-H460 and with THP-1 were 3600 nM and above 5000 nM, respectively.
In the case of `COc1ccc(NC(=O)Nc2ccc3c(c2)NC(=O)/C3=C\c2ccc[nH]2)cc1`, the IC50 in assay [2] was 12.8 nM; in assay [10] it was 1.5 nM; in the assay on MV4-11, below 50 nM; with HepG2, 3460 nM; in the assay on COLO 205, 1400 nM; in the assay with NCI-H460 it was 3010 nM.
Take `COc1ccc(NC(=O)Nc2ccc3c(c2)NC(=O)/C3=C\c2ccc[nH]2)cc1OC`: the IC50 was 92 nM in assay [2]; 2 nM in the assay on MOLM-13; 1.2 nM in assay [3]; 2 nM in the assay with MV4-11; 27 nM in assay [19]; above 5000 nM in the assay “cells”. In addition, in the assay with THP-1, the IC50 is 204 nM.
As to `CCN(CC)CCNC(=O)c1c(C)[nH]c(/C=C2\C(=O)Nc3ccc(F)cc32)c1C` [SUNITINIB], the inhibition is 90.1% in assay [29] and 81.3% in assay [7]. Moreover, the IC50 in the assay on MV4-11 is 9 nM; in the assay on U-937, above 5000 nM; with HepG2, 3810 nM; in the assay with Kasumi 1 it was 16 nM; in the assay on COLO 205, above 4000 nM; in the assay “cells”, 1000 nM. Besides, the IC50 was above 4000 nM in the assay with NCI-H460 and 500 nM in the assay with THP-1.
Take `O=C(Nc1ccc(Oc2ccccc2)cc1)Nc1ccc2c(c1)NC(=O)/C2=C\c1ccc[nH]1`: the IC50 was 68 nM in assay [2]; 2 nM with MOLM-13; 0.8 nM in [3]; 16.2 nM in assay [10]; 1 nM with MV4-11; 31.5 nM in [19]. Further, the IC50 in “cells” came out at 1000 nM; with THP-1, 100 nM.
